Assay type in all cases: in vivo
Data set [1] concerns striatum of MPTP mice. The data set can be described thus: Neurotransmitter content in striatum of MPTP mice (HPLC). How it is done:
(§1) Five-month-old male C57B1/6J mice (Elevage Janvier, Le Genest St Isle, France) weighing 28-30 g were used. The mice received four intraperitoneal injections (with 2 h intervals) of saline solution containing 0 (“Saline mice”) or 20 mg/kg of MPTP (“MPTP mice”) (Sigma Aldrich, St Louis, Mo. USA). Saline or MPTP were administrated at day 0 (D0), the central continuous dopamine infusion or peripheral L-dopa treatment were delivered from 7th to the 14th day (D7 to D14), and then spontaneous locomotor measurement and sacrifice were performed at D14.

The subject of data set [2] is TH-ir neurons in SNpc. The data set can be described thus: TH-ir neurons counting in SNpc of MPTP mice. Here is the method: as §1
The brains were removed and, after a post-fixation process, were cryoprotected and frozen. […]
The number of TH-ir neurons (“Tyrosine Hydroxylase-Immunoreactive») in the SNpc was assessed by counting TH-ir neurons of the left and right hemisphere in every 4th section of the SNpc of all experimental groups. […] For the unbiased quantification, a line was drawn around the SNpc of each section. […] Cells were counted with a 40× using a Nikon Eclipse E600 microscope (Tokyo, Japan). […] As no difference between left and right SNps was found, TH-ir counted neurons of both sides were pooled and for each animal, a sum of neurons counted in each section was calculated. […]

In data set [3] the test system is TH-ir terminals in dorsal striatum. The data set can be described thus: TH-ir optical density in dorsal striatum of MPTP mice. Particulars: MPTP administration.
For data set [4], the system named is MPTP mice. Nature of the data set: Spontaneous motor activity (actimetry) in MPTP mice. Particulars: for spontaneous locomotor activity: 7 days. Here is the method: as §1
After 7 days of treatment (i.p. L-dopa or i.c.v dopamine), spontaneous motor activity was recorded in an actimeter (Panlab, Barcelona, Spain) during 10 minutes. The apparatus was a 45×45×35 cm transparent Plexiglas enclosure equipped with two frames of infrared beams. This apparatus allowed horizontal motor activity (distance traveled, speed, movement type) and rearing behavior to be measured based on infrared beams obstructions. Chosen parameters were collected by Actitrack software (Panlab, Barcelona, Spain).

Where [5] appears, read: peripheral L-dopa 50 and 100 mg/day.

This is an account of results in patent publication US10105326B2, “Pharmaceutical solution comprising dopamine for use in treating parkinson's disease” (CENTRE HOSPITALIER REGIONAL ET UNIVERSITAIRE DE LILLE (CHRU), priority 2014, dated 2018).

With `CN1CC=C(c2ccccc2)CC1` [MPTP, 1-methyl-4-phenyl-1,2,3,6-tetrahydropyridine], in data set [1] (MPTP intoxication), the “reduction in DOPAC content in each striatum” value is on record as 70-80%, the “reduction in HIA content in each striatum” value was 20-50%, the “reduction in HVA content in each striatum” value is given as 60-70% and the “reduction in noradrenalin content in each striatum” value is given as 35-50%. Further, the “reduction in serotonin content in each striatum” value in data set [1] (MPTP intoxication) was 40-40%. In addition, in data set [1] (MPTP intoxication, 4 x 20 mg/kg i.p.), the “reduction in dopamine content in each striatum” value is given as 85-90%. The “loss of TH-expressing neurons in the SNpc compared to saline-injected mice” value in data set [2] (MPTP administration) was 44.3%. The “loss of TH-expressing neurons in the striatum compared to saline-injected mice” value in data set [3] was determined as 38.2%.
With `N[C@@H](Cc1ccc(O)c(O)c1)C(=O)O` [L-dopa, L-3,4-dihydroxyphenylalanine], in data set [1] (peripheral L-dopa 25 mg/day), the “dopaminergic neurotransmission in striatum” value is reported as “no effect on dopaminergic neurotransmission”; the “serotonin and noradrenalin in both striatum” value was “increase in serotonin and noradrenalin in both striatum”. In data set [1] (setting [5]), the “dopamine and metabolites in both striatum” value is “significant increase in dopamine and metabolites in both striatum”; the “serotonin and noradrenalin content” value was “no supplemental effect on serotonin and noradrenalin content”. Moreover, the “effect on TH-ir neurons in SNpc” value in data set [2] (L-dopa treatment, 7 days) is recorded as “no significant effect”. The abnormal behaviors result in data set [4] (high doses of L-Dopa) was “abnormal behaviors such as dyskinesia”. Further, the spontaneous locomotor activity entry in data set [4] (peripheral L-dopa 50 mg/kg/day) is given as “restored”. In addition, in data set [4] (peripheral L-dopa 25 and 100 mg/day), the spontaneous locomotor activity entry was “no effect”.
